Data as given in paper PMC4949533, “Optimization of Inhibitors of Mycobacterium tuberculosis Pantothenate Synthetase Based on Group Efficiency Analysis” (Chemmedchem, 2015).

target: T1, Mycobacterium tuberculosis pantothenate synthetase (Mycobacterium tuberculosis, UniProt P9WIL4); test: isothermal titration calorimetry (ITC); assay type: binding; conditions: active site; lead compound of the group's earlier work; read-out: K D [μM]^[a]; cited from earlier work
T1 construct: gene panC
Description: isothermal titration calorimetry (ITC) on Mycobacterium tuberculosis pantothenate synthetase

T1 sequence (P9WIL4 2-309 limits assumed): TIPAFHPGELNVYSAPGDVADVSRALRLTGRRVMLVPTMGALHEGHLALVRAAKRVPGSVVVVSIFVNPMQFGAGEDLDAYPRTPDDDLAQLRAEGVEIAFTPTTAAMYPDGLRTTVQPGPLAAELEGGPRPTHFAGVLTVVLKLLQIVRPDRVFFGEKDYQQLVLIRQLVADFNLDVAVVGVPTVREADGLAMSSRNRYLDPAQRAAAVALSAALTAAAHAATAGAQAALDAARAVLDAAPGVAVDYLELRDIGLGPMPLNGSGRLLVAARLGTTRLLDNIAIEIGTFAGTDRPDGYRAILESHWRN

In the case of `COc1ccc2c(c1)cc(C(=O)NS(=O)(=O)c1ccc(C)cn1)n2CC(=O)O` [compound 5, 5], the Kd is listed as 1.5 µM.

same assay, conditions: read-out: K D [μM]^[a]

Point of comparison: `COc1ccc2c(c1)cc(C(=O)NS(=O)(=O)c1ccc(C)cc1)n2CC(=O)O` [compound 10, 10], Kd 0.34 µM. Against it:
- COc1ccc2c(c1)cc(C(=O)NS(=O)(=O)c1ccc(C(F)(F)F)cc1)n2CC(=O)O [compound 11, 11] — 1.7-fold lower, 0.2 µM
- COc1ccc2c(c1)cc(C(=O)NS(=O)(=O)N1CCN(C(C)=O)CC1)n2CC(=O)O [compound 16, 16] — 50-fold higher, 17 µM
- COc1ccc2c(c1)cc(C(=O)NS(=O)(=O)N1CCOCC1)n2CC(=O)O [compound 15, 15] — 10-fold higher, 3.5 µM
- COc1ccc2c(c1)cc(C(=O)NS(=O)(=O)c1ccc(C(F)(F)F)cc1[N+](=O)[O-])n2CC(=O)O [compound 14, 14] — 2.4-fold higher, 0.8 µM
- COc1ccc(S(=O)(=O)NC(=O)c2cc3cc(OC)ccc3n2CC(=O)O)cc1 [compound 19, 19] — 5.9-fold higher, 2 µM
- COc1ccc2c(c1)cc(C(=O)NS(=O)(=O)c1ccc(C(C)(C)C)cc1)n2CC(=O)O [compound 12, 12] — within 1.5-fold, 0.46 µM
- COc1ccc2c(c1)cc(C(=O)NS(=O)(=O)c1ccc3ccccc3c1)n2CC(=O)O [compound 13, 13] — 1.8-fold higher, 0.61 µM
- COc1ccc2c(c1)cc(C(=O)NS(=O)(=O)c1ccc(NC(C)=O)cc1)n2CC(=O)O [compound 18, 18] — 18-fold higher, 6 µM

target: T1, Mycobacterium tuberculosis pantothenate synthetase; test: enzyme inhibition assay; assay type: biochemical; conditions: not given

Point of comparison: `COc1ccc2c(c1)cc(C(=O)NS(=O)(=O)c1ccc(C(F)(F)F)cc1)n2CC(=O)O` [compound 11, 11], IC50 5700 nM. Against it:
- COc1ccc2c(c1)cc(C(=O)NS(=O)(=O)Cc1ccc(C(F)(F)F)cc1)n2CC(=O)O [compound 20, 20] — 23-fold lower, 253 nM
